Source: paper PMC5607274, “An iterative compound screening contest method for identifying target protein inhibitors using the tyrosine-protein kinase Yes” (Scientific Reports, 2017)

Target: T1, human recombinant Yes [a.a. 2–543 (end)] (Homo sapiens, UniProt P07947)
T1 construct: human recombinant Yes [a.a; 2–543 (end)]; purchased BPS Bioscience 40488
Assay: ADP-Glo kinase assay, inhibition rates of Yes phosphorylation activity (first and second screening)
Assay type: biochemical
Settings: 10 μmol L−1 compound; for First screening IR (inhibition rate): mean of n = 4 wells
Method in brief: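 ADP-Glo luminescence measured inhibition of human recombinant Yes (a.a. 2–543) phosphorylation activity. In the first screen, each compound ran in 4 wells and inhibition rates were averaged. The second screen retested hits as compounds dissolved from fresh powder.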

T1 sequence (P07947 2-543): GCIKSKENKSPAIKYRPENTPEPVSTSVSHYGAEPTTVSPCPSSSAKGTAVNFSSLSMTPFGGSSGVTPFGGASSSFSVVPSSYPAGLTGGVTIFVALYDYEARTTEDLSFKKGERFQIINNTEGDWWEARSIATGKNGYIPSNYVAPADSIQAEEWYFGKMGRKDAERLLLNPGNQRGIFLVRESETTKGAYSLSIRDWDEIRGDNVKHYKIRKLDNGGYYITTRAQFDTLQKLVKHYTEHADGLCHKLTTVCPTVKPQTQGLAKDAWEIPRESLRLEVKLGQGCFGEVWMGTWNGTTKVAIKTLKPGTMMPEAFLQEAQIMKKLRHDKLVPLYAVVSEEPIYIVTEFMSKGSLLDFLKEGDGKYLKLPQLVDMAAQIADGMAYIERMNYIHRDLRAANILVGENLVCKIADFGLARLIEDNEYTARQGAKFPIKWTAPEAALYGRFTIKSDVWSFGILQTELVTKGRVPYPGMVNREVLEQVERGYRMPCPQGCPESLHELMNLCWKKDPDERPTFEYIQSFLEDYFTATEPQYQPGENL

Structure (SMILES) | First screening IR (inhibition rate) [%] | Second screening IR (inhibition rate) (second screening, dissolved from fresh powder, n = 4) [%]
COC(=O)c1cc(NC(=O)C2=C(Cl)CCCC2)cc(C(=O)OC)c1 [Compound Z223943920] | -1 | –
CCCc1cc(=O)oc2cc(OCC(=O)N(C)CC3COc4ccccc4O3)ccc12 (centres unmarked) [Compound Z97092537] | 30 | –
CCN(CCC#N)S(=O)(=O)c1cc(C)cc(S(C)(=O)=O)c1C [Compound Z1145197816] | -2 | –
FC(F)(F)c1ccnc(Nc2cn[nH]c2)n1 [Compound Z397745198] | 2 | –
CC(C)(C)c1ncc(C(=O)Nc2ccc(F)c(NC(=O)C3CC3)c2)s1 [Compound Z825945954] | -24 | –
Cc1nn(C)c2sc(C(=O)NC3CCN(C(=O)C(C)(C)C)CC3)cc12 [Compound Z421731088] | 3 | –
CN(C)S(=O)(=O)CCCS(=O)(=O)N(C)C1CCC1 [Compound Z1720728610] | -6 | –
CC(C)(C)OC(=O)N1CCCc2cc(NC(=O)c3cnc[nH]3)ccc21 [Compound Z1131596340] | 1 | –
O=C(Nc1n[nH]c(-c2ccccn2)n1)c1ccc(-n2cccn2)c(F)c1 [Compound Z1128365659] | 4 | –
CC(C)n1ncc2c(C(=O)N(C)CC(=O)Nc3ccc(F)c(F)c3F)cc(-c3ccccc3)nc21 [Compound Z51761022] | 12 | –
Cn1c2ccccc2n2c3cccc(F)c3c(=O)c(C#N)c12 [Compound Z734467112] | -1 | –
Cc1[nH]c(=O)c(C#N)c(C)c1CCc1nc(-c2cc(Br)cs2)no1 [Compound Z1170101191] | 10 | –
CCN(C1CCS(=O)(=O)C1)S(=O)(=O)c1ccc(Br)cc1Cl (centres unmarked) [Compound Z45467139] | 2 | –
CCOC(=O)c1cnc(SCC(=O)OC/C(O)=C(\C#N)c2nc3ccccc3[nH]2)nc1N [Compound Z76798588] | 5 | –
FC(F)(F)c1ccnc(Nc2ccc(NCc3ccccn3)cc2)n1 [Compound Z1192169075] | 39 | –
Cl.N#Cc1ccc(-c2cc(-c3ccccc3)c3cc(Cl)ccc3n2)cc1 [Compound Z48950825] | 58 | –
Cc1ccc(NC(=O)C(=O)c2c(-c3ccccc3)cc3ccccn23)cc1S(=O)(=O)N1CCOCC1 [Compound Z56835405] | -2 | –
CN(C1CCCCC1)S(=O)(=O)N1CCS(=O)(=O)CC1 [Compound Z1082836720] | -4 | –
CCCCN(C1CCS(=O)(=O)C1)S(=O)(=O)c1ccc(Cl)c(Cl)c1 (centres unmarked) [Compound Z147580066] | 30 | –
Cc1cccc(OCCCNC(=O)c2ccc3nc[nH]c3c2)c1 [Compound Z168616264] | -4 | –
CCC(C)(C)C1C/C(=C/c2ccc(C(C)C)cc2)c2nc3ccccc3c(C(=O)O)c2C1 (centres unmarked) [Compound Z46116606] | 13 | –

Structure (SMILES) | First screening IR (inhibition rate) [%] | Second screening IR (inhibition rate) (second screening, dissolved from fresh powder, n = 4) [%]
Cc1nc(-c2cc(C(=O)N3CCCC(n4ccnc4)C3)co2)cs1 (centres unmarked) [Compound Z1102775620] | -5 | –
Cc1nc2c(cc1C(=O)NCCNc1ccccc1[N+](=O)[O-])c(C)nn2C [Compound Z355820588] | -9 | –
CN(CC(=O)Nc1cccc(F)c1)C(=O)c1cc2ccccc2cc1O [Compound Z26987740] | 21 | –
CCOC(=O)c1sc(-c2cccc([N+](=O)[O-])c2)cc1NC(=O)CCc1ccccc1 [Compound Z29956667] | -1 | –
NC(=O)C(NCCCN1CCc2ccccc21)c1ccccc1 (centres unmarked) [Compound Z320065982] | -17 | –
C=CCN(CC(=O)Nc1cccc(C#N)c1)S(=O)(=O)c1ccccc1F [Compound Z26091205] | 3 | –
O=C(Nc1ccc2ccccc2n1)c1ccc(OCc2cccnc2)cc1 [Compound Z339583070] | -12 | –
CNS(=O)(=O)c1ccc2c(c1)nc(-c1cc(C#N)n(C)c1)n2C [Compound Z1837787694] | -2 | –
Cl.Fc1ccc(-c2cc(-c3ccccc3)c3ccccc3n2)cc1 [Compound Z48951014] | 18 | –
C=CCN(CC(=O)Nc1ccc(S(=O)(=O)N2CCOCC2)cc1)S(=O)(=O)c1ccccc1C(F)(F)F [Compound Z24398732] | 0 | –
N#C/C(=C(/O)COC(=O)c1cc(F)c(F)cc1Cl)c1nc2ccccc2[nH]1 [Compound Z18771813] | 8 | –
COC(=O)/C(=C\C1=C2OC(c3ccccc3)=CC(c3ccccc3)=C2CCC1)C(C)=O [Compound Z56781644] | 7 | –
Cc1ccc(-c2noc(/C=C/c3cncc(O)c3)n2)cc1F [Compound Z1642148240] | -4 | –
Cc1ccc(/C=C/C2=Cc3c(sc(N)c3C#N)C(C)(C)C2)o1 [Compound Z56910454] | 31 | 36
O=C(O)c1cccc(N/N=C/c2ccc(N(c3ccccc3)c3ccccc3)cc2)c1 [Compound Z49584790] | 18 | –
Cc1cc(NC(=O)C(C)SCC(=O)Nc2ccc(SC3CCCC3)cc2)no1 (centres unmarked) [Compound Z357095098] | -13 | –
O=C(Nc1n[nH]c(-c2ccoc2)n1)c1cc(-c2ccc(F)cc2)on1 [Compound Z1426521974] | 4 | –
Cc1ccc(-n2c(SCC(=O)c3ccc(NC(=O)C(C)(C)C)cc3)nnc2N2CCOCC2)cc1 [Compound Z98370329] | 11 | –
Cc1c(C(=O)N2CCN(C(=O)C3CCS(=O)(=O)C3)CC2)[nH]c2c1C(=O)CC(C)(C)C2 (centres unmarked) [Compound Z164965524] | 25 | –
COc1ccc(-c2cc(C(=O)O)c3cnn(C(C)C)c3n2)cc1OC [Compound Z56643618] | 9 | –

Next, values leading:

First screening IR (inhibition rate) [%] | Second screening IR (inhibition rate) (second screening, dissolved from fresh powder, n = 4) [%] | Structure (SMILES)
8 | – | O=C(OCc1nc(-c2cccs2)no1)c1c(F)cccc1Cl [Compound Z51180604]
8 | – | Cc1ccccc1-c1cc(C(=O)O)c2cnn(C(C)C)c2n1 [Compound Z56643722]
4 | – | NC(=O)NCc1ccc(C(=O)N2CCN(c3ncc(C(F)(F)F)cc3Cl)CC2)cc1 [Compound Z30640594]
9 | – | Cc1cnc(C)c(NCc2cccc(Cn3ccnc3C)c2)n1 [Compound Z1687428428]
-20 | – | O=C(CCc1ccc2ccccc2n1)OCCOc1ccc(S(=O)(=O)N2CCOCC2)cc1 [Compound Z166077876]
-7 | – | Cc1ccc(-n2cnc3c2CCNC3)cc1 [Compound Z1250487636]
-13 | – | Cc1ccc(Cn2ncc3c(N4CCN(CCO)CC4)ncnc32)cc1 [Compound Z1172235406]
7 | – | FC(F)(F)c1ccnc(Nc2ccc(N3CCOCC3)cc2)n1 [Compound Z285679120]
-3 | – | O=S(=O)(c1ccccc1Cl)N1CCN(Cc2nc(-c3cccc(Cl)c3)no2)CC1 [Compound Z90240663]
1 | – | O=C(O)c1ccc(/C=C2/CCCc3c2nc2ccccc2c3C(=O)O)cc1 [Compound Z46035770]
-8 | – | Cn1ccc2c(NC(=O)NCc3ccnc(N4CCCC4)c3)cccc21 [Compound Z1040576806]
2 | – | N#Cc1cnc(NCCC(=O)N2CCc3sccc3C2)c(Cl)c1 [Compound Z1039090738]
-3 | – | Cc1ccccc1/C=C1/CC(C)Cc2c1nc1ccccc1c2C(=O)O (centres unmarked) [Compound Z46107859]
-12 | – | O=C(CN1CCN(S(=O)(=O)c2cccc(Cl)c2Cl)CC1)NC1CCCCCC1 [Compound Z46278335]
45 | – | Clc1ccccc1Cn1ncc2c(N3CCCC3)ncnc21 [Compound Z1172235419]
7 | – | O=C(NCCc1nc2ccccc2[nH]1)c1cc(-c2ccccc2)nc2c1cnn2Cc1ccco1 [Compound Z228153102]
28 | – | Clc1ccc(-c2csc(Nc3ccccc3)n2)s1 [Compound Z238765362]
-5 | – | FC(F)(F)c1ccnc(Nc2ccc(N3CCCC3)nc2)n1 [Compound Z319012342]
-4 | – | O=C(c1ccc(Cl)c(S(=O)(=O)N2CCCCC2)c1)N1CCn2c1nc1ccccc12 [Compound Z204253774]
33 | – | CC(Sc1nnc(NCc2ccc(F)cc2)s1)C(=O)N1CCCCCC1 (centres unmarked) [Compound Z151845340]
-10 | – | O=C(Nc1nc2c(s1)CN(Cc1ccccc1)CC2)c1cc(-c2ccco2)[nH]n1 [Compound Z317663344]
-14 | – | O=C(O)c1c2c(nc3ccccc13)/C(=C\c1ccccc1)CCC2 [Compound Z46035726]
-4 | – | Oc1c(Br)cccc1CNCc1ncc(-c2ccccc2)o1 [Compound Z1135283259]
-8 | – | CCC(Sc1nc2ccccc2c2nc(CCN3CCCCC3)nn12)C(=O)Nc1ccc2c(c1)OCO2 (centres unmarked) [Compound Z1157834229]
18 | – | Cc1ccccc1Nc1nc(N)nc(CSCC(=O)N2CCCCC2)n1 [Compound Z45354084]
2 | – | CC(C)CNC(=O)CN1CCN(c2nc(-c3ccccn3)nc3scc(-c4ccccc4)c23)CC1 [Compound Z196146788]
18 | – | N#Cc1ccc(Cl)cc1NC(=O)CSc1ncnc2ccccc12 [Compound Z19316082]
0 | – | CCN(CC)C(CNC(=O)C1CCN(c2ccc3nnc(C(F)(F)F)n3n2)CC1)c1ccccc1 (centres unmarked) [Compound Z237862822]
-6 | – | CCOc1ccc(-n2c(O)c(C=NCCCN3CCOCC3)c3ccccc3c2=O)cc1 [Compound Z31276645]
